{"source": "patent US7645882B2", "about": "“Inhibitor of protein modification products formation” (priority 2003, dated 2010)", "key": {"[1]": {"test_system": "middle cerebral artery ischemia-reperfusion model", "assay": "Cerebroprotective action in middle cerebral artery ischemia-reperfusion model", "assay_type": "in vivo, rat", "conditions": "for rotor rod test, ratio to before occlusion (%), Ave: reperfusion vs before occlusion", "description": "CD(SD)IGS male rats (Japan Charles river Kabushiki kaisha, Hino farm, room No. 22, specific product) (8 rats per one group) having body weight 270 to 350 g were anesthetized by 2% isoflurane (mixed bas comprising of 70% N2O (laughter gas) and 30% O2) to immobilize, and then the rats were put on warming plate to keep the rectal and brain temperature 37 to 38° C. After that, to observe the stability in the examination, cannula which was made by polyethylene (PE-50, Becton Dickinson) was inserted and left in caudal artery of said animal, and this made blood drawing and blood pressure determining to monitor the biochemical parameter such as blood sugar level, hematocrit, CO2 concentration, oxygen partial pressure, pH, blood pressure and etc. In addition, cerebral blood flow in cortex was determined by laser doppler fluorometry (Neuroscience.inc: OMEGA FLOW (FLO-C1)), putting the detection site directly on cranium on the point left 4 mm from bregma. Left neck of such animal was incised, and from internal and external carotid fork of common carotid artery to upstream of internal carotid, nylon surgical thread (length 16 mm, diameter 0.2 to 0.3 mm, with silicon coating on its tip 3 mm) was passed and left, middle cerebral artery was obstructed for 2 hours. After that, the thread was removed to release the middle cerebral artery, and blood was reperfused for 21 hours. To each animals, 3.0 mg/kg of edaravone (control) and 5.58 mg/kg of TM-2002 were respectively administered twice by cannula which is left in caudal artery 5 minutes and 5 hours after middle cerebral artery occlusion. After said operation, the brain was removed from said animal, and after preparing 7 brain slices with 2 mm thickness, to TTC stain (0.8 g of 2,3,5-triphenyltetrazolium chloride (Sigma) dissolved in 40 ml of saline) were soaked at 37° C. for 15 minutes to stain, the area of infarction and fixed by 10% neutral formalin liquid to prepare specimen. Such specimens were created the image by CCD camera respectively, and analysed according to method of Swanson et al. (J Cereb Blood Flow Metab 10:290-293; 1994). […] Furthermore, function recovering was estimated before and after the operation by rotor rod test that estimates how much they can walk on rotating rotor."}, "pentosidine": {"test_system": "pentosidine", "assay": "Pentosidine production inhibiting effect with BSA and arabinose", "assay_type": "biochemical", "conditions": "BSA and arabinose instead of plasma", "description": "Fresh heparinized plasma samples were obtained after informed consent from hemodialysis patients prior to the dialysis session, and filtrated and sterilized. To the plasma (450 μL), there was added the solution of TM-2002 in dimethylsurphoxide (50 μL) (final concentration: 0.8, 2.0, 5.0 mM) incubated at 37° C. for one week. Then, the amount of pentosidine was measured.\nMeasurement of the amount of pentosidine was made as follows: to each incubated sample (50 μL) was added an equal volume of 10% trichloroacetic acid, followed by centrifugation at 5000 g for 5 minutes; after removal of the supernatant, the pellet was washed by 5% trichloroacetic acid (300 μL); the pellet was dried under reduced pressure and then subjected to hydrolysis in 6N HCl solution (100 μL) at 110° C. under nitrogen atmosphere for 16 hours; to the hydrolysate, 5N NaOH (100 μL) and 0.5 M phosphate buffer (pH 7.4) (200 μL) were added, followed by filtration through a porefilter with a pore size of 0.5 μm and dilution with PBS. The concentration of free pentosidine was determined by reversed-phase HPLC using a fluorescence detector (Miyata, T. et al.: Proc. Natl. Acad. Sci. USA, Vol. 93, p. 2353-2358, 1996). The effluent was monitored at 335/385 nm of excitation/emission wavelength. Synthetic pentosidine was used as the standard. The detection limit of pentosidine was 0.1 pmol/mg protein.\nThe plasma from patients was substituted to BSA and arabinose, and the pentosidine production inhibiting effect of another compounds (I) or (II) was measured in the same manner as [Test Examination 1]. Therein, “-” means that the examination was not carried out."}}}
{"smiles": "CC1=NN(c2ccccc2)C(=O)C1", "note": "[Edaravone, 3-methyl-1-phenyl-2-pyrazolin-5-one, reference compound]", "values": [{"measurement": "cerebral infarction nest", "setting": "[1]; 2 hours occlusion, 21 hours reperfusion, edaravone 3.0 mg/kg, TM-2002 5.58 mg/kg, twice (5 minutes and 5 hours after occlusion), vs excipient", "value": "significantly reduced"}, {"measurement": "Nervous condition estimation test, Ave (grading system of Bederson et al.)", "setting": "[1]; after occlusion 10 min", "value": 2.8}, {"measurement": "Nervous condition estimation test, Ave (grading system of Bederson et al.)", "setting": "[1]; after occlusion 2 hrs", "value": 2.7}, {"measurement": "Nervous condition estimation test, Ave (grading system of Bederson et al.)", "setting": "[1]; after reperfusion 10 min", "value": 2.2}, {"measurement": "Nervous condition estimation test, Ave (grading system of Bederson et al.)", "setting": "[1]; after reperfusion 3 hrs", "value": 2.1}, {"measurement": "Nervous condition estimation test, Ave (grading system of Bederson et al.)", "setting": "[1]; after reperfusion 4 hrs", "value": 2.0}, {"measurement": "Nervous condition estimation test, Ave (grading system of Bederson et al.)", "setting": "[1]; after reperfusion 22 hrs", "value": 1.5}, {"measurement": "rotor rod test, Ave (reading value of count from rotor rod machine)", "setting": "[1]; before occlusion", "value": 197.0}, {"measurement": "improvement for nervous condition and recovering the function", "setting": "[1]; compared to excipient single administration", "value": "remarkably shown"}, {"measurement": "rotor rod test, Ave (reading value of count from rotor rod machine)", "setting": "[1]; reperfusion", "value": 153.1}, {"measurement": "rotor rod test, ratio to before occlusion (%), Ave", "setting": "[1]", "value": 160.4, "unit": "%"}]}
{"smiles": "Cc1ncc2c(c1O)C(c1c(C)nn(-c3ccccc3)c1O)OC2", "note": "(stereo not drawn) [TM-3001, 1-(5-hydroxy-3-methyl-1-phenyl-1H-pyrazol-4-yl)-6-methyl-1,3-dihydro-furo[3,4-c]pyridin-7-ol]", "values": [{"measurement": "Nervous condition estimation test, Ave (grading system of Bederson et al.)", "setting": "[1]; after occlusion 10 min", "value": 2.8}, {"measurement": "Nervous condition estimation test, Ave (grading system of Bederson et al.)", "setting": "[1]; after occlusion 2 hrs", "value": 2.6}, {"measurement": "Nervous condition estimation test, Ave (grading system of Bederson et al.)", "setting": "[1]; after reperfusion 10 min", "value": 1.5}, {"measurement": "Nervous condition estimation test, Ave (grading system of Bederson et al.)", "setting": "[1]; after reperfusion 3 hrs", "value": 1.3}, {"measurement": "Nervous condition estimation test, Ave (grading system of Bederson et al.)", "setting": "[1]; after reperfusion 4 hrs", "value": 2.0}, {"measurement": "Nervous condition estimation test, Ave (grading system of Bederson et al.)", "setting": "[1]; after reperfusion 22 hrs", "value": 2.0}, {"measurement": "rotor rod test, Ave (reading value of count from rotor rod machine)", "setting": "[1]; before occlusion", "value": 183.4}, {"measurement": "rotor rod test, Ave (reading value of count from rotor rod machine)", "setting": "[1]; reperfusion", "value": 160.6}, {"measurement": "rotor rod test, ratio to before occlusion (%), Ave", "setting": "[1]", "value": 78.1, "unit": "%"}]}
{"smiles": "CC1=NN(c2ccc(S(N)(=O)=O)cc2)C(=O)C1=Cc1ccc(O)cc1", "note": "[compound 49, 4-[4-(4-hydroxy-benzylidene)-3-methyl-5-oxo-4,5-dihydro-pyrazol-1-yl]-benzenesulfonamide]", "values": [{"measurement": "Pentosidine production rate in 5 mM of medicament (%)", "setting": "pentosidine", "value": 7.09, "unit": "%"}]}
{"smiles": "CCOC(=O)c1ccc(N2N=C(C(F)(F)F)/C(=C/c3cccs3)C2=O)cc1", "note": "[compound 50, 4-(5-oxo-4-thiophene-2-yl-methylene-3-trifluoromethyl-4,5-dihydro-pyrazol-1-yl)-benzoic acid-ethyl ester]", "values": [{"measurement": "Pentosidine production rate in 5 mM of medicament (%)", "setting": "pentosidine", "value": 63.17, "unit": "%"}]}
{"smiles": "CN(C)c1ccc(/C=C2\\C(=O)N(c3ccc(S(N)(=O)=O)cc3)N=C2C(F)(F)F)cc1", "note": "[compound 51, 4-[4-(4-dimethylamino-benzylidene)-5-oxo-3-trifluoromethyl-4,5-dihydro-pyrazole-1-yl]-benzenesulfonamide]", "values": [{"measurement": "Pentosidine production rate in 5 mM of medicament (%)", "setting": "pentosidine", "value": 41.68, "unit": "%"}]}
{"smiles": "O=C1/C(=C\\c2ccc(O)cc2)C(C(F)(F)F)=NN1c1ccccc1", "note": "[compound 53, 4-(4-hydroxy-benzylidene)-2-phenyl-5-trifluoromethyl-2,4-dihydro-pyrazol-3-one]", "values": [{"measurement": "Pentosidine production rate in 5 mM of medicament (%)", "setting": "pentosidine", "value": 66.76, "unit": "%"}]}
{"smiles": "CC1=NN(c2ccc(C)c(C)c2)C(=O)/C1=C\\c1ccc(O)cc1O", "note": "[compound 54, 4-(2,4-dihydroxy-benzylidene)-2-(3,4-dimethyl-phenyl)-5-methyl-2,4-dihydro-pyrazol-3-one]", "values": [{"measurement": "Pentosidine production rate in 5 mM of medicament (%)", "setting": "pentosidine", "value": 73.48, "unit": "%"}]}
{"smiles": "COc1ccc(/C=C2/C(=O)N(c3ccccc3)N=C2C)c(OC)c1O", "note": "[compound 59, 4-(3-hydroxy-2,4-dimethoxy-benzylidene)-5-methyl-2-phenyl-2,4-dihydro-pyrazol-3-one]", "values": [{"measurement": "Pentosidine production rate in 5 mM of medicament (%)", "setting": "pentosidine", "value": 5.3, "unit": "%"}]}
{"smiles": "COc1cc(/C=C2/C(=O)N(c3ccc(C(=O)OC(C)C)cc3)NC2C)ccc1O", "note": "(stereo not drawn) [compound 60, 4-[4-(4-hydroxy-3-methoxy-benzylidene)-3-methyl-5-oxo-pyrazolidin-1-yl]-benzoic acid-isopropyl ester]", "values": [{"measurement": "Pentosidine production rate in 5 mM of medicament (%)", "setting": "pentosidine", "value": 9.02, "unit": "%"}]}
{"smiles": "COc1cc(/C=C2/C(=O)N(c3ccc(Cl)c(C(=O)O)c3)N=C2C)c(Cl)cc1O", "note": "[compound 61, 2-chloro-5-[4-(2-chloro-4-hydroxy-5-methoxy-benzylidene)-3-methyl-5-oxo-4,5-dihydro-pyrazol-1-yl]-benzoic acid]", "values": [{"measurement": "Pentosidine production rate in 5 mM of medicament (%)", "setting": "pentosidine", "value": 46.25, "unit": "%"}]}
{"smiles": "CC1=NN(c2ccccc2)C(=O)/C1=C/N(C)C", "note": "[compound 65, 4-dimethylaminomethylene-5-methyl-2-phenyl-2,4-dihydro-pyrazol-3-one]", "values": [{"measurement": "Pentosidine production rate in 5 mM of medicament (%)", "setting": "pentosidine", "value": 62.43, "unit": "%"}]}
{"smiles": "CC1=NN(c2ccccc2)C(=O)/C1=C/c1c(C)nn(-c2ccccc2)c1O", "note": "[compound 66, 4-(5-hydroxy-3-methyl-1-phenyl-1H-pyrazol-4-yl-methylene)-5-methyl-2-phenyl-2,4-dihydro-pyrazol-3-one]", "values": [{"measurement": "Pentosidine production rate in 5 mM of medicament (%)", "setting": "pentosidine", "value": 15.17, "unit": "%"}]}
{"smiles": "CC1=NN(c2ccccc2)C(=O)/C1=C/c1ccc(Cl)cc1", "note": "[compound 67, 4-(4-chloro-benzylidene)-5-methyl-2-phenyl-2,4-dihydro-pyrazol-3-one]", "values": [{"measurement": "Pentosidine production rate in 5 mM of medicament (%)", "setting": "pentosidine", "value": 9.09, "unit": "%"}]}
{"smiles": "CC1=NN(c2ccccc2)C(=O)/C1=C/c1ccc(O)cc1", "note": "[compound 70, 4-(4-hydroxy-benzylidene)-5-methyl-2-phenyl-2,4-dihydro-pyrazol-3-one]", "values": [{"measurement": "Pentosidine production rate in 5 mM of medicament (%)", "setting": "pentosidine", "value": 0.04, "unit": "%"}]}
{"smiles": "CC1=NN(c2cccc(Cl)c2)C(=O)/C1=C/c1ccc(O)cc1", "note": "[compound 71, 2-(3-chloro-phenyl)-4-(4-hydroxy-benzylidene)-5-methyl-2,4-dihydropyrazol-3-one]", "values": [{"measurement": "Pentosidine production rate in 5 mM of medicament (%)", "setting": "pentosidine", "value": 4.63, "unit": "%"}]}
{"smiles": "CC1=NN(c2ccccc2)C(=O)/C1=C/c1ccc(OCc2ccccc2)cc1", "note": "[compound 72, 4-(4-benzyloxy-benzylidene)-5-methyl-2-phenyl-2,4-dihydropyrazol-3-one]", "values": [{"measurement": "Pentosidine production rate in 5 mM of medicament (%)", "setting": "pentosidine", "value": 7.63, "unit": "%"}]}
{"smiles": "CC1=NN(c2cccc(Cl)c2)C(=O)/C1=N/O", "note": "[compound 73, 2-(3-chloro-phenyl)-5-methyl-2H-pyrazol-3,4-dione 4-oxym]", "values": [{"measurement": "Pentosidine production rate in 5 mM of medicament (%)", "setting": "pentosidine", "value": 66.42, "unit": "%"}]}
{"smiles": "CCOC(=O)C1=NN(c2ccccc2)/C(=C2\\C(=O)N(c3ccccc3)N=C2c2ccccc2)S1", "note": "[compound 74, 5-(5-oxo-1,3-diphenyl-1,5-dihydro-pyrazol-4-ylidene)-4-phenyl-4,5-dihydro-[1,3,4]thiazole-2-carboxilic acid-ethyl este]", "values": [{"measurement": "Pentosidine production rate in 5 mM of medicament (%)", "setting": "pentosidine", "value": 87.24, "unit": "%"}]}
